The subject of this assay is Protein Kinase A (PKA). Nature of the assay: Hippocampal PKA (western blot) after 10 days of oral drinking. It counts as in vivo, Wistar rats. As to conditions: oral by drinking 100 mg/Kg for 10 days, hippocampus, FIG. 10A.2. The method, then:
Animal experimental procedures were carried out in accordance with the European Communities directive 2010/63/EU and Spanish legislation (Real Decreto 53/2013). The protocol was approved by the Research and approved by Ethics Committee for Animal Experiments of the University of Malaga, Spain. In accordance with the ARRIVE guidelines, all efforts were made to minimize animal suffering and to reduce the number of animals used per experimental group. Chronic drinking experiments on Wistar rats were performed on 20 male rats. All adult rats, ageing 2 months (≈300 g of body weight), were provided by Charles River Laboratories (Barcelona, Spain). The animals were housed individually under a standard 12 h light-dark cycle in a room with temperature and humidity control. Water and rat chow pellets were provided ad libitum throughout the course of the present study. […]
Western Blot Analysis. […] Bands were quantified by densitometric analysis using ImageJ software (Rasband, WS, ImageJ, US National Institutes of Health, Bethesda, Md., USA). […] The results were expressed as the protein/α-Adaptin ratio or phosphorylated/total protein ratio and normalized to the control group (Y axis represents ‘fold mean of the control values’).
All data are expressed as mean±SEM. […]

As to `COC1[C@@H](O)[C@@H](O)C(O)[C@H](O)[C@H]1O` (stereo partly drawn) [DPIN, (1S,2S,4S,5R)-6-methoxycyclohexane-1,2,3,4,5-pentol], the “total amount of PKA” value is listed as “significant increase”.

Values taken from patent US20220313620A1, “COMPOSITION FOR PREVENTING AND TREATING TAUOPATHIES” (SERVICIO ANDALUZ DE SALUD, priority 2019, published 2022).
